Columns and labels:
Type in all cases: in vivo
[1] = system: AMARE (Amaranthus retroflexus); assay: greenhouse pre-emergence herbicidal test
Source text: (§1) The seeds of the test plants were sown separately for each species. For the pre-emergence treatment, the active ingredients, which had been suspended or emulsified in water, were applied directly after sowing by means of finely distributing nozzles. The containers were irrigated gently to promote germination and growth and subsequently covered with transparent plastic hoods until the plants had rooted. This cover caused uniform germination of the test plants, unless this had been impaired by the active ingredients. Depending on the species, the plants were kept at 10-25° C. or 20-35° C., respectively. The test period extended over 2 to 4 weeks. During this time, the plants were tended, and their response to the individual treatments was evaluated. […] A moderate herbicidal activity is given at values of at least 60, a good herbicidal activity is given at values of at least 70, and a very good herbicidal activity is given at values of at least 85. The plants used in the greenhouse experiments were of the following species: [table]

[2] = system: ABUTH (Abutilon theophrasti); assay: greenhouse pre-emergence herbicidal test
Source text: as §1

[3] = system: ECHCG (Echinocloa crus-galli); assay: greenhouse pre-emergence herbicidal test
Source text: (§2) The culture containers used were plastic flowerpots containing loamy sand with approximately 3.0% of humus as the substrate. The seeds of the test plants were sown separately for each species.
(§3) For the pre-emergence treatment, the active ingredients, which had been suspended or emulsified in water, were applied directly after sowing by means of finely distributing nozzles. The containers were irrigated gently to promote germination and growth and subsequently covered with transparent plastic hoods until the plants had rooted. This cover caused uniform germination of the test plants, unless this had been impaired by the active ingredients.
(§4) Depending on the species, the plants were kept at 10-25° C. or 20-35° C., respectively.
(§5) The test period extended over 2 to 4 weeks. During this time, the plants were tended, and their response to the individual treatments was evaluated.
(§6) Evaluation was carried out using a scale from 0 to 100. 100 means no emergence of the plants, or complete destruction of at least the aerial moieties, and 0 means no damage, or normal course of growth. A moderate herbicidal activity is given at values of at least 60, a good herbicidal activity is given at values of at least 70, and a very good herbicidal activity is given at values of at least 85.
(§7) The plants used in the greenhouse experiments were of the following species: […]

STEME (Stellaria media) = assay: greenhouse pre-emergence herbicidal test
Source text: as §2, §3, §4, §5, §6, §7

[4] = system: AMARE (Amaranthus retroflexus); assay: greenhouse post-emergence herbicidal test; details: 0.031 kg/ha
Source text: as §2
For the post-emergence treatment, the test plants were first grown to a height of 3 to 15 cm, depending on the plant habit, and only then treated with the active ingredients which had been suspended or emulsified in water. For this purpose, the test plants were either sown directly and grown in the same containers, or they were first grown separately as seedlings and transplanted into the test containers a few days prior to treatment.
as §4, §5, §6, §7

[5] = system: CAPBP (Capsella bursa-pastoris); assay: greenhouse pre-emergence herbicidal test; details: CAPBP
Source text: as §2, §3, §4, §5, §6, §7

CCC(C)(Cl)c1nc(N)nc(Nc2c(F)c(F)c(Br)c(F)c2F)n1 (centres unmarked) [Example 195]
herbicidal activity ([1]; 500 g/ha): very good (a very good herbicidal activity is given at values of at least 85) | herbicidal activity ([2]; 500 g/ha): good (a good herbicidal activity is given at values of at least 70) | herbicidal activity ([3]; 500 g/ha): good (a good herbicidal activity is given at values of at least 70)

COc1cccc(F)c1Nc1nc(N)nc(C(C)(C)F)n1 [Example 42]
herbicidal activity ([1]; 0.0625 kg/ha): very good (a very good herbicidal activity is given at values of at least 85)

N#Cc1cccc(F)c1Nc1nc(N)nc(C(F)F)n1 [Example 149]
herbicidal activity (STEME (Stellaria media); 250 g/ha): good (a good herbicidal activity is given at values of at least 70)

CC(C)(F)c1nc(N)nc(Nc2c(F)cccc2Br)n1 [Example 31]
herbicidal activity [4]: very good (a very good herbicidal activity is given at values of at least 85)

CC(C#N)c1nc(N)nc(Nc2c(F)c(F)c(F)c(F)c2F)n1 (centres unmarked) [Example 5]
herbicidal activity ([1]; 0.125 kg/ha): very good (a very good herbicidal activity is given at values of at least 85)

CCOc1ccc(F)c(Nc2nc(N)nc(C(C)(C)F)n2)c1F [Example 44]
herbicidal activity ([1]; 0.125 kg/ha): very good (a very good herbicidal activity is given at values of at least 85) | herbicidal activity ([2]; 0.125 kg/ha): very good (a very good herbicidal activity is given at values of at least 85)

Nc1nc(CF)nc(Nc2c(F)c(F)cc(F)c2F)n1 [Example 198]
herbicidal activity ([1]; 119 g/ha): very good (a very good herbicidal activity is given at values of at least 85)

COC(C)c1nc(N)nc(Nc2c(F)ccc(F)c2F)n1 (centres unmarked) [Example 228]
herbicidal activity ([1]; 500 g/ha): very good (a very good herbicidal activity is given at values of at least 85) | herbicidal activity ([2]; 500 g/ha): very good (a very good herbicidal activity is given at values of at least 85)

CC=C(C)c1nc(N)nc(Nc2c(F)cccc2F)n1 [Example 124]
herbicidal activity ([1]; 1000 g/ha): very good (a very good herbicidal activity is given at values of at least 85) | herbicidal activity ([2]; 1000 g/ha): very good (a very good herbicidal activity is given at values of at least 85) | herbicidal activity ([3]; 1000 g/ha): very good (a very good herbicidal activity is given at values of at least 85)

Nc1nc(CC(F)(F)F)nc(Nc2c(F)c(F)c(F)c(F)c2F)n1 [Example 72]
herbicidal activity ([1]; 125 g/ha): very good (a very good herbicidal activity is given at values of at least 85) | herbicidal activity ([2]; 125 g/ha): very good (a very good herbicidal activity is given at values of at least 85)

Nc1nc(C2CCCC2)nc(N(C(=O)C2CCCC2)c2c(F)ccc(F)c2F)n1 [Example 302]
herbicidal activity ([1]; 1000 g/ha): very good (a very good herbicidal activity is given at values of at least 85) | herbicidal activity ([2]; 1000 g/ha): good (a good herbicidal activity is given at values of at least 70) | herbicidal activity ([3]; 1000 g/ha): very good (a very good herbicidal activity is given at values of at least 85)

CCN(c1nc(N)nc(C(C)(C)F)n1)c1c(F)c(F)c(F)c(F)c1F [Example 308]
herbicidal activity ([1]; 125 g/ha): very good (a very good herbicidal activity is given at values of at least 85)

CC(C)(F)c1nc(N)nc(Nc2c(F)ccc([N+](=O)[O-])c2F)n1 [Example 189]
herbicidal activity ([1]; 507 g/ha): very good (a very good herbicidal activity is given at values of at least 85) | herbicidal activity ([2]; 507 g/ha): very good (a very good herbicidal activity is given at values of at least 85) | herbicidal activity ([3]; 507 g/ha): very good (a very good herbicidal activity is given at values of at least 85)

CC(C)(C)c1nc(N)nc(Nc2c(F)cccc2C#N)n1 [Example 135]
herbicidal activity ([1]; 500 g/ha): very good (a very good herbicidal activity is given at values of at least 85) | herbicidal activity ([2]; 500 g/ha): very good (a very good herbicidal activity is given at values of at least 85) | herbicidal activity ([3]; 500 g/ha): very good (a very good herbicidal activity is given at values of at least 85)

Cc1cccc(F)c1Nc1nc(N)nc(C(C)(C)F)n1 [Example 41]
herbicidal activity ([1]; 0.031 kg/ha): good (a good herbicidal activity is given at values of at least 70)

CC(C)c1nc(N)nc(Nc2c(F)ccc(Cl)c2F)n1 [Example 67]
herbicidal activity ([1]; 125 g/ha): very good (a very good herbicidal activity is given at values of at least 85) | herbicidal activity ([2]; 125 g/ha): good (a good herbicidal activity is given at values of at least 70)

CC=C(C)c1nc(N)nc(Nc2c(F)c(F)cc(F)c2F)n1 [Example 206]
herbicidal activity ([1]; 500 g/ha): very good (a very good herbicidal activity is given at values of at least 85)

CC(C)c1nc(N)nc(Nc2c(F)cccc2F)n1 [Example 66]
herbicidal activity ([1]; 62.5 g/ha): very good (a very good herbicidal activity is given at values of at least 85)

COc1cccc(OC)c1Nc1nc(N)nc(C(C)(C)F)n1 [Example 47]
herbicidal activity ([1]; 0.125 kg/ha): very good (a very good herbicidal activity is given at values of at least 85)

Cc1cc(C)cc(Oc2cccc(F)c2Nc2nc(N)nc(C(C)(C)F)n2)c1 [Example 191]
herbicidal activity ([1]; 1000 g/ha): very good (a very good herbicidal activity is given at values of at least 85) | herbicidal activity ([2]; 1000 g/ha): very good (a very good herbicidal activity is given at values of at least 85) | herbicidal activity ([3]; 1000 g/ha): very good (a very good herbicidal activity is given at values of at least 85)

CC(C)(F)c1nc(N)nc(Nc2c(Br)cc(F)c(F)c2F)n1 [Example 34]
herbicidal activity (STEME (Stellaria media); 0.125 kg/ha): very good (a very good herbicidal activity is given at values of at least 85) | herbicidal activity ([5]; 0.125 kg/ha): very good (a very good herbicidal activity is given at values of at least 85)

CCC(C)c1nc(N)nc(Nc2c(F)c(F)cc(F)c2F)n1 (centres unmarked) [Example 193]
herbicidal activity ([1]; 500 g/ha): very good (a very good herbicidal activity is given at values of at least 85) | herbicidal activity ([2]; 500 g/ha): very good (a very good herbicidal activity is given at values of at least 85) | herbicidal activity ([3]; 500 g/ha): very good (a very good herbicidal activity is given at values of at least 85)

COc1ccc(F)c(Nc2nc(N)nc(C(C)(C)F)n2)c1F [Example 43]
herbicidal activity [4]: good (a good herbicidal activity is given at values of at least 70)

Nc1nc(Nc2c(F)ccc(F)c2F)nc(C(F)F)n1 [Example 123]
herbicidal activity ([1]; 250 g/ha): very good (a very good herbicidal activity is given at values of at least 85) | herbicidal activity ([2]; 250 g/ha): good (a good herbicidal activity is given at values of at least 70) | herbicidal activity ([3]; 250 g/ha): good (a good herbicidal activity is given at values of at least 70)

CCCC(F)(CC)c1nc(N)nc(Nc2c(F)c(F)c(F)c(F)c2F)n1 (centres unmarked) [Example 50]
herbicidal activity (STEME (Stellaria media); 0.125 kg/ha): very good (a very good herbicidal activity is given at values of at least 85) | herbicidal activity ([5]; 0.125 kg/ha): very good (a very good herbicidal activity is given at values of at least 85)

Nc1nc(Nc2c(F)c(F)c(F)c(F)c2F)nc(C(F)(F)C(F)(F)F)n1 [Example 68]
herbicidal activity ([1]; 125 g/ha): very good (a very good herbicidal activity is given at values of at least 85) | herbicidal activity (STEME (Stellaria media); 125 g/ha): very good (a very good herbicidal activity is given at values of at least 85) | herbicidal activity ([5]; 125 g/ha): very good (a very good herbicidal activity is given at values of at least 85)

Nc1nc(Nc2c(F)c(F)c(F)c(F)c2F)nc(C(F)F)n1 [Example 121]
herbicidal activity ([1]; 250 g/ha): very good (a very good herbicidal activity is given at values of at least 85) | herbicidal activity ([2]; 250 g/ha): very good (a very good herbicidal activity is given at values of at least 85)

CC(F)c1nc(N)nc(Nc2c(F)c(F)c(Br)c(F)c2F)n1 (centres unmarked) [Example 180]
herbicidal activity ([1]; 250 g/ha): very good (a very good herbicidal activity is given at values of at least 85) | herbicidal activity ([2]; 250 g/ha): very good (a very good herbicidal activity is given at values of at least 85)

CCC(C#N)(CC)c1nc(N)nc(Nc2c(F)c(F)cc(F)c2F)n1 [Example 219]
herbicidal activity ([1]; 250 g/ha): very good (a very good herbicidal activity is given at values of at least 85) | herbicidal activity ([2]; 250 g/ha): very good (a very good herbicidal activity is given at values of at least 85)

CC(C)(C#N)c1nc(N)nc(Nc2c(F)c(F)c(F)c(F)c2F)n1 [Example 64]
herbicidal activity ([1]; 125 g/ha): very good (a very good herbicidal activity is given at values of at least 85) | herbicidal activity ([2]; 125 g/ha): very good (a very good herbicidal activity is given at values of at least 85) | herbicidal activity (STEME (Stellaria media); 125 g/ha): very good (a very good herbicidal activity is given at values of at least 85)

From patent US9549558B2, “Herbicidal azines” (BASF SE, priority 2012, dated 2017)
